A short description of series [1]: Metabolic stability in human hepatic microsome. The series is classed as in vitro ADME. As to conditions: microsomes, pH 7.4; human hepatic microsome, NADPH(+); read-out: CL NADPH(+).
Series [2] is described as follows: PAMPA (parallel artificial membrane permeability assay). It counts as in vitro ADME. As to conditions: PAMPA; membrane permeation rate (Pe); 50 mM MOPSO buffer pH 6.5 with 5.0% glycocholic acid, 37° C., 18 hours; read-out: iPAMPA Pe. In outline:
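Artificial membrane was 10% (w/v) egg lecithin plus 0.5% (w/v) cholesterol in dodecane on a PVDF filter. A 10 mM DMSO stock was added at 0.5% (v/v) to donor buffer (50 mM MOPSO, pH 6.5, 5.0% glycocholic acid). After 18 h at 37 °C, LC/MS or LC/UV gave donor and acceptor levels for Pe.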

Each structure is given as a SMILES string. Starred links: 1 amine or outer side, 2 acyl side, 3 side chain; linkers in the order of their positions; H or OH if unused. Positions of bridges follow the written chain, without caps; N, C: chain ends. Non-standard residues stand in square brackets, D forms with d. Residues, ends and D or L forms follow the SMILES beside them. *: point of attachment. hhPhe = N[C@@H](CCCc1ccccc1)C(=O)O; NMeF = CN[C@@H](Cc1ccccc1)C(=O)O; NMeGABA = CN(CCCC(=O)[*:2])[*:1]; hPhe = N[C@@H](CCc1ccccc1)C(=O)O; NMeL = CN[C@@H](CC(C)C)C(=O)O; NMeV = CN[C@H](C(=O)O)C(C)C; NMeA = CN[C@@H](C)C(=O)O; Piperidide = C1CCN(*)CC1; dNMeA = CN[C@H](C)C(=O)O; Sar = CNCC(=O)O; tBu = CC(C)(C)*

As to `CC(C)C[C@H]1C(=O)N[C@@H](COC(C)(C)C)C(=O)N[C@H](C(=O)N2CCCCC2)CC(=O)N[C@@H](C)C(=O)N(C)[C@@H](Cc2ccccc2)C(=O)N(C)CC(=O)N(C)[C@@H](Cc2ccccc2)C(=O)N[C@@H]([C@@H](C)O)C(=O)N1C` [DP-711] (A[NMeF][Sar][NMeF]T[NMeL]S(tBu)D-Piperidide; lactam N-8), the microsomal CLint at 1 uM in series [1] worked out at 217 µL/min/mg. The Papp at 18 hours, 50 µM in series [2] stood at 29 ×10⁻⁶ cm/s.
Regarding `CC(C)C[C@H]1C(=O)N(C)[C@@H](Cc2ccccc2)C(=O)N[C@H](C(=O)N2CCCCC2)CC(=O)N(C)CCCC(=O)N(C)[C@@H](C)C(=O)N(C)[C@@H](CC(C)C)C(=O)N[C@@H]([C@@H](C)O)C(=O)N(C)CC(=O)N1C` [DP-712] ([NMeGABA][NMeA][NMeL]T[Sar][NMeL][NMeF]D-Piperidide; lactam N-8), the microsomal CLint at 1 uM in series [1] worked out at 57 µL/min/mg. Moreover, in series [2], the Papp at 18 hours, 50 µM amounted to 12 ×10⁻⁶ cm/s.
The matching figures for `CC(C)C[C@@H]1NC(=O)[C@H](CC(C)C)N(C)C(=O)[C@H](Cc2ccccc2)N(C)C(=O)[C@H]([C@@H](C)O)NC(=O)[C@H](CC(C)C)N(C)C(=O)CN(C)C(=O)CCCN(C)C(=O)C[C@@H](C(=O)N2CCCCC2)NC1=O` [DP-713] ([NMeGABA][Sar][NMeL]T[NMeF][NMeL]LD-Piperidide; lactam N-8): 169 µL/min/mg and 27 ×10⁻⁶ cm/s.
For the molecule `CC(C)C[C@@H]1NC(=O)[C@H](CC(C)C)N(C)C(=O)[C@H]([C@@H](C)O)NC(=O)[C@H](Cc2ccccc2)N(C)C(=O)CN(C)C(=O)[C@H](CC(C)C)N(C)C(=O)[C@@H](C(C)C)NC(=O)C[C@@H](C(=O)N2CCCCC2)NC1=O` [DP-714] ([dV][NMeL][Sar][NMeF]T[NMeL]LD-Piperidide; lactam N-8), the microsomal CLint at 1 uM in series [1] was 145 µL/min/mg. For the same molecule, the Papp at 18 hours, 50 µM in series [2] was 31 ×10⁻⁶ cm/s.
The matching figures for `CC(C)C[C@@H]1NC(=O)[C@H](CC(C)C)N(C)C(=O)[C@H]([C@@H](C)O)NC(=O)CCCN(C)C(=O)C[C@@H](C(=O)N2CCCCC2)NC(=O)[C@H](COC(C)(C)C)NC(=O)[C@H](Cc2ccccc2)N(C)C1=O` [DP-715] ([NMeGABA]T[NMeL]L[NMeF]S(tBu)D-Piperidide; lactam N-7): 134 µL/min/mg and 24 ×10⁻⁶ cm/s.
In the case of `CC(C)C[C@@H]1NC(=O)CCCN(C)C(=O)C[C@@H](C(=O)N2CCCCC2)NC(=O)[C@H](Cc2ccccc2)N(C)C(=O)[C@H]([C@@H](C)O)NC(=O)[C@H](CC(C)C)N(C)C(=O)[C@H](COC(C)(C)C)NC1=O` [DP-716] ([NMeGABA]LS(tBu)[NMeL]T[NMeF]D-Piperidide; lactam N-7), the microsomal CLint at 1 uM in series [1] worked out at 133 µL/min/mg. Moreover, in series [2], the Papp at 18 hours, 50 µM worked out at 21 ×10⁻⁶ cm/s.
On to `CC(C)C[C@H]1C(=O)N[C@@H]([C@@H](C)O)C(=O)N(C)[C@@H](CC(C)C)C(=O)N(C)CC(=O)N(C)[C@@H](Cc2ccccc2)C(=O)N[C@@H](COC(C)(C)C)C(=O)N[C@H](C(=O)N2CCCCC2)CC(=O)N1C` [DP-717] ([NMeL]T[NMeL][Sar][NMeF]S(tBu)D-Piperidide; lactam N-7), for which the microsomal CLint at 1 uM in series [1] amounted to 101 µL/min/mg. Further, in series [2], the Papp at 18 hours, 50 µM is 21 ×10⁻⁶ cm/s.
With `CC(C)C[C@@H]1NC(=O)C[C@@H](C(=O)N2CCCCC2)NC(=O)[C@H](COC(C)(C)C)NC(=O)[C@H]([C@@H](C)O)NC(=O)[C@H](Cc2ccccc2)N(C)C(=O)[C@H](CC(C)C)N(C)C(=O)CN(C)C1=O` [DP-718] (L[Sar][NMeL][NMeF]TS(tBu)D-Piperidide; lactam N-7), in series [1], the microsomal CLint at 1 uM stood at 99 µL/min/mg. Also, the Papp at 18 hours, 50 µM in series [2] amounted to 17 ×10⁻⁶ cm/s.
The matching figures for `CC(C)C[C@H]1C(=O)N(C)[C@@H](CC(C)C)C(=O)N(C)[C@@H](Cc2ccccc2)C(=O)N[C@H](C(=O)N2CCCCC2)CC(=O)N[C@@H](C(C)C)C(=O)N(C)CC(=O)N[C@@H]([C@@H](C)O)C(=O)N1C` [DP-719] (V[Sar]T[NMeL][NMeL][NMeF]D-Piperidide; lactam N-7): 218 µL/min/mg and 26 ×10⁻⁶ cm/s.
The matching figures for `CC(C)C[C@@H]1NC(=O)[C@H]([C@@H](C)O)NC(=O)[C@H](CC(C)C)N(C)C(=O)CN(C)C(=O)[C@H](Cc2ccccc2)N(C)C(=O)[C@H](C(C)C)NC(=O)C[C@@H](C(=O)N2CCCCC2)NC1=O` [DP-720] (V[NMeF][Sar][NMeL]TLD-Piperidide; lactam N-7): 62 µL/min/mg and 16 ×10⁻⁶ cm/s.
Take `CC(C)C[C@H]1C(=O)N(C)[C@@H](CC(C)C)C(=O)N[C@H](C(=O)N2CCCCC2)CC(=O)N[C@H](C)C(=O)N(C)[C@@H](Cc2ccccc2)C(=O)N(C)[C@@H](CC(C)C)C(=O)N[C@@H]([C@@H](C)O)C(=O)N1C` [DP-721] ([dA][NMeF][NMeL]T[NMeL][NMeL]D-Piperidide; lactam N-7): the microsomal CLint at 1 uM in series [1] was 915 µL/min/mg. Further, the Papp at 18 hours, 50 µM in series [2] worked out at 49 ×10⁻⁶ cm/s.
Taken in the same sequence, the figures for `CC(C)C[C@@H]1NC(=O)[C@H]([C@@H](C)O)NC(=O)[C@H](CC(C)C)N(C)C(=O)[C@H](Cc2ccccc2)N(C)C(=O)[C@H](CC(C)C)N(C)C(=O)C[C@@H](C(=O)N2CCCCC2)NC(=O)[C@H](CC(C)C)N(C)C1=O` [DP-722] ([NMeL][NMeF][NMeL]TL[NMeL]D-Piperidide; lactam N-7) were 311 µL/min/mg and 45 ×10⁻⁶ cm/s.
As to `CC(C)C[C@@H]1NC(=O)[C@H]([C@@H](C)O)NC(=O)[C@H](CC(C)C)N(C)C(=O)CN(C)C(=O)[C@H](Cc2ccccc2)N(C)C(=O)[C@H](CC(C)C)NC(=O)C[C@@H](C(=O)N2CCCCC2)NC1=O` [DP-723] (L[NMeF][Sar][NMeL]TLD-Piperidide; lactam N-7), the microsomal CLint at 1 uM in series [1] is 154 µL/min/mg. In addition, the Papp at 18 hours, 50 µM in series [2] amounted to 26 ×10⁻⁶ cm/s.
Taken in the same sequence, the figures for `CC(C)C[C@H]1C(=O)N[C@@H](COC(C)(C)C)C(=O)N(C)CC(=O)N[C@@H]([C@@H](C)O)C(=O)N[C@H](C(=O)N2CCCCC2)CC(=O)N[C@@H](C(C)C)C(=O)N(C)[C@@H](Cc2ccccc2)C(=O)N1C` [DP-724] (V[NMeF][NMeL]S(tBu)[Sar]TD-Piperidide; lactam N-7) were 160 µL/min/mg and 20 ×10⁻⁶ cm/s.
The matching figures for `CC(C)C[C@H]1C(=O)N[C@H](C(=O)N2CCCCC2)CC(=O)N(C)[C@H](C)C(=O)N(C)[C@@H](CC(C)C)C(=O)N[C@@H]([C@@H](C)O)C(=O)N(C)[C@@H](CC(C)C)C(=O)N[C@@H](COC(C)(C)C)C(=O)N1C` [DP-725] ([dNMeA][NMeL]T[NMeL]S(tBu)[NMeL]D-Piperidide; lactam N-7): 138 µL/min/mg and 35 ×10⁻⁶ cm/s.
Take `CC(C)C[C@@H]1NC(=O)C[C@@H](C(=O)N2CCCCC2)NC(=O)[C@H](CC(C)C)N(C)C(=O)[C@H](CC(C)C)NC(=O)[C@H](CC(C)C)N(C)C(=O)[C@H]([C@@H](C)O)NC(=O)CN(C)C1=O` [DP-726] (L[Sar]T[NMeL]L[NMeL]D-Piperidide; lactam N-7): in series [1], the microsomal CLint at 1 uM turned out to be 75 µL/min/mg. Besides, the Papp at 18 hours, 50 µM in series [2] turned out to be 17 ×10⁻⁶ cm/s.
As for `CC(C)C[C@@H]1NC(=O)[C@H](C(C)C)NC(=O)C[C@@H](C(=O)N2CCCCC2)NC(=O)[C@H]([C@@H](C)O)NC(=O)CN(C)C(=O)[C@H](CC(C)C)N(C)C(=O)[C@H](CC(C)C)N(C)C1=O` [DP-727] (VL[NMeL][NMeL][Sar]TD-Piperidide; lactam N-7), the microsomal CLint at 1 uM in series [1] came out at 59 µL/min/mg. In addition, in series [2], the Papp at 18 hours, 50 µM is 16 ×10⁻⁶ cm/s.
With `CC[C@H](C)[C@@H]1NC(=O)[C@H](CC(C)C)NC(=O)[C@H](C(C)C)NC(=O)[C@H](CC(C)C)N(C)C(=O)[C@H](CC(C)C)NC(=O)[C@H](CCc2ccccc2)NC(=O)[C@H]([C@@H](C)O)NC(=O)[C@H](C)N(C)C(=O)[C@H](CC(C)C)NC(=O)[C@H](C)N(C)C(=O)C[C@@H](C(=O)N2CCCCC2)NC1=O` [DP-728] ([NMeA]L[NMeA]T[hPhe]L[NMeL]VLID-Piperidide; lactam N-11), the microsomal CLint at 1 uM in series [1] is 42 µL/min/mg. Further, in series [2], the Papp at 18 hours, 50 µM came to 6.5 ×10⁻⁶ cm/s.
Taken in the same sequence, the figures for `CC[C@H](C)[C@@H]1NC(=O)[C@H](CC(C)C)NC(=O)[C@H](C(C)C)NC(=O)[C@H](CC(C)C)N(C)C(=O)[C@H](CC(C)C)NC(=O)[C@H](CCCc2ccccc2)NC(=O)[C@H]([C@@H](C)O)NC(=O)[C@H](C)N(C)C(=O)[C@H](CC(C)C)NC(=O)[C@H](C)N(C)C(=O)C[C@@H](C(=O)N2CCCCC2)NC1=O` [DP-729] ([NMeA]L[NMeA]T[hhPhe]L[NMeL]VLID-Piperidide; lactam N-11) were 54 µL/min/mg and 4.7 ×10⁻⁶ cm/s.
The matching figures for `CC[C@H](C)[C@@H]1NC(=O)[C@H](Cc2ccccc2)N(C)C(=O)[C@H](CCCc2ccccc2)NC(=O)[C@H](C(C)C)N(C)C(=O)[C@H](CC(C)C)N(C)C(=O)[C@H](CC(C)C)NC(=O)[C@@H](C)NC(=O)C[C@@H](C(=O)N2CCCCC2)NC(=O)[C@H]([C@@H](C)O)NC(=O)[C@H](C)NC(=O)[C@H](C)N(C)C1=O` [DP-731] ([dA]L[NMeL][NMeV][hhPhe][NMeF]I[NMeA]ATD-Piperidide; lactam N-11): 53 µL/min/mg and 48 ×10⁻⁶ cm/s.
With `CC(C)C[C@@H]1NC(=O)[C@@H]2CCCN2C(=O)[C@H](Cc2ccccc2)N(C)C(=O)[C@H](C)N(C)C(=O)[C@H]([C@@H](C)O)NC(=O)[C@@H](C(C)C)NC(=O)C[C@@H](C(=O)N2CCCCC2)NC(=O)[C@H](CC(C)C)N(C)C(=O)[C@H](C)N(C)C(=O)[C@H](CCc2ccccc2)NC(=O)[C@H](C(C)C)N(C)C1=O` [DP-732] ([dV]T[NMeA][NMeF]PL[NMeV][hPhe][NMeA][NMeL]D-Piperidide; lactam N-11), in series [1], the microsomal CLint at 1 uM was found to be 57 µL/min/mg. Also, in series [2], the Papp at 18 hours, 50 µM came to 26 ×10⁻⁶ cm/s.
With `CC(C)C[C@@H]1NC(=O)[C@@H]2CCCN2C(=O)[C@H](Cc2ccccc2)N(C)C(=O)[C@H](C)N(C)C(=O)[C@H]([C@@H](C)O)NC(=O)[C@@H](C(C)C)NC(=O)C[C@@H](C(=O)N2CCCCC2)NC(=O)[C@H](CC(C)C)N(C)C(=O)[C@H](C)N(C)C(=O)[C@H](CCCc2ccccc2)NC(=O)[C@H](C(C)C)N(C)C1=O` [DP-733] ([dV]T[NMeA][NMeF]PL[NMeV][hhPhe][NMeA][NMeL]D-Piperidide; lactam N-11), the microsomal CLint at 1 uM in series [1] turned out to be 97 µL/min/mg. Further, in series [2], the Papp at 18 hours, 50 µM is 26 ×10⁻⁶ cm/s.

These data come from patent US9409952B2, “Peptide-compound cyclization method” (Chugai Seiyaku Kabushiki Kaisha, priority 2011, dated 2016).
